Results from paper PMC3013379 (Bioorganic & Medicinal Chemistry Letters, 2011).

Assays:
[1] = system: NF-κB activation induced by TNF-α in HEK293 cells (293/NFκB-luc); assay type: cell-based; conditions: HEK293 NF-κB luciferase reporter cells, 2 ng/ml TNF-α for 6 h
human recombinant IKK-β = biological target: T1, human recombinant IKK-β (Homo sapiens, UniProt O14920); experiment: ELISA-based; assay type: biochemical
T1 sequence (O14920 1-756): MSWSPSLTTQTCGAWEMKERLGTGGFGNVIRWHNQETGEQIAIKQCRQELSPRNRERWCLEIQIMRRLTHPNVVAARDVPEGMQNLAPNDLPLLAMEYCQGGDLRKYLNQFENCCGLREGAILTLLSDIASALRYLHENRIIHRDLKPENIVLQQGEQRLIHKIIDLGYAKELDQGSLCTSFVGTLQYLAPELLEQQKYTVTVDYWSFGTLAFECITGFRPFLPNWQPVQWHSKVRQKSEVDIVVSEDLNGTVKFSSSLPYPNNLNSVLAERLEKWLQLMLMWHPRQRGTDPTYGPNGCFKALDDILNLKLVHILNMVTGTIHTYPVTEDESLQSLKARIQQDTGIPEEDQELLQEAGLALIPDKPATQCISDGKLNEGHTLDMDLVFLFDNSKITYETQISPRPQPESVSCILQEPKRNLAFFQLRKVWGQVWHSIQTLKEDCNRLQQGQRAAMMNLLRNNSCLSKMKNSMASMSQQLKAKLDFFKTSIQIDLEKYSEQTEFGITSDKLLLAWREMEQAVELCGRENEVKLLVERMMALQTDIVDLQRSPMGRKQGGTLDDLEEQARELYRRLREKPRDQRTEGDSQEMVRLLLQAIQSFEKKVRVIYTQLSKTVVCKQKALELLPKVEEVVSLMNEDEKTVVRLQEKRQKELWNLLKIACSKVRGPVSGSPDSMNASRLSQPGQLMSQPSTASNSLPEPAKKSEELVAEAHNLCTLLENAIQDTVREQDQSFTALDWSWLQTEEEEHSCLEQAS

| SMILES | Effect on TNF-α-induced luciferase activity (in words) [1] | IC50 (human recombinant IKK-β) [µM] |
| --- | --- | --- |
| NC(=O)Nc1sc(-c2ccc(F)cc2)cc1C(N)=O [IKK-β inhibitor IV, reference compound] | inhibited TNF-α-induced luciferase activity dose-dependently | – |
| O=C(OCCC12CC3CC(CC(C3)C1)C2)c1ccc(NCc2cc(O)ccc2O)cc1 [Compound 8, 2-(1-adamantyl)ethyl 4-[(2,5-dihydroxyphenyl)methylamino]benzoate] | inhibited TNF-α-induced luciferase activity dose-dependently | 6.95 ± 0.55 |
